# Laboratory results: patent US6384187B1, “Antiproliferative activity of microsclerodermins” (Harbor Branch Oceanographic Institution, Inc., priority 1999, dated 2002)
# Tested on: A549 human lung adenocarcinoma cells
# Assay: Immunofluorescent detection of effects on the microtubule matrix (anti-alpha-tubulin)
# Assay type: cell-based
# Experimental: Microsclerodermin compounds were evaluated as to their effects on the microtubule network of A549 human lung adenocarcinoma cells using anti-alpha-tubulin monoclonal antibodies. […] Tests were conducted to determine if the microsclerodermin compounds acted upon the cellular microtubule network in a similar fashion.
# On day 1, 7.0×10^4 adherent A549 cells were cultured in TCM overnight at 37° C. in 5% CO2 on 22 mm2 coverslipsin 6-well microtiter plates. On day 2, the TCM was removed and replaced with various concentrations of the microsclerodermin compounds, or discodermolide,in TCM or TCM without drug (control) and incubated for 24 hours at 37° C. in 5% CO2. On day 3, the TCM was removed and the adhered cells were fixed in 3.7% formaldehyde solution in Dulbecco's phosphate-buffered saline (D-PBS) for 10 minutes at room temperature. The cells were then permeabilized in a 2% Triton X-100 solution in D-PBS, 2 ml per well, for 5 minutes at room temperature and washed twice in D-PBS prior to staining.
# To each well containing cells attached to coverslips a 2 ml volume of mouse monoclonal anti-alpha-tubulin(Cat#T-5168, Sigma Immuno Chemicals) diluted 1:1000 in D-PBS was added and the cells incubated at room temperature for 45 minutes. The coverslips were rinsed twice with D-PBS. A 2 ml volume of goat-anti-mouse-IgG-FITC conjugate (Cat#T-5262, Sigma Immuno Chemicals) diluted at 1:1000 in D-PBS was added and the cells incubated at room temperature for 45 minutes. Coverslips were rinsed twice in D-PBS and incubated for 30 minutes at 37° C. with 1 ml/well of propidium iodide ([…]) and ribonuclease A ([…]) in D-PBS. The cover slips were rinsed three times with sterile distilled water, mounted on slides, and observed under the microscope using epifluorescence illumination for the presence of abnormal aster and microtubule bundle formation.
# [1] = treated cells, concentration not given, reference agents
Compound,abnormal aster and microtubule bundle formation [1],"abnormal aster and microtubule bundle formation (A549 cells, 5 μg/ml, 24 hours)","cell number compared with control cultures (A549 cells, 5 μg/ml, 24 hours)","cells undergoing mitosis (A549 cells, 5 μg/ml, 24 hours)","alpha-tubulin antibody staining of the microtubule matrix (A549 cells, 5 μg/ml, 24 hours, seen in some cells)"
"CC(=O)O[C@H]1C(=O)[C@@]2(C)[C@H]([C@H](OC(=O)c3ccccc3)[C@]3(O)C[C@H](OC(=O)[C@H](O)[C@@H](NC(=O)c4ccccc4)c4ccccc4)C(C)=C1C3(C)C)[C@]1(OC(C)=O)CO[C@@H]1C[C@@H]2O [paclitaxel, reference compound]",abnormal formation of multiple centriolar-radiating microtubules with extensive clusters of associated microtubular “bundles”,,,,
microsclerodermin F,,nor was there any microtubule bundling or cells with multiple asters,fewer cells than in control cultures,No cells in the culture were found to be undergoing mitosis,completely disassembled structure with a near uniform distribution throughout the cytoplasm
"C=C/C=C\[C@H](C)[C@H](OC(N)=O)[C@@H](C)[C@H](O)[C@@H](C)C/C(C)=C\[C@H](C)[C@@H](O)[C@@H](C)/C=C\[C@@H](O)C[C@@H]1OC(=O)[C@H](C)[C@@H](O)[C@H]1C [discodermolide, reference compound]",abnormal formation of multiple centriolar-radiating microtubules with extensive clusters of associated microtubular “bundles”,,,,
